What was measured:
[1] = test system: multidrug-resistant protein 2; parameters: method as in PMID 24091240; settings: affecting the level of absorbed compound; cited from earlier work
[2] = test system: P-glycoprotein; parameters: method as in PMID 24091240; settings: affecting the level of absorbed compound; cited from earlier work
[3] = rat, in vivo
Description: Rats, weighing more than 400 g, were put in metabolic cages and fasted overnight with free access to water before experiments. […] The intravenous preparations were freshly dissolved in 20% DMSO/NSS for injection. The oral preparations were freshly prepared by suspending the test compound in 0.5% CMC. To reduce pain and injury during drug administration and blood collection, rats were anesthetized with 5% isoflurane by chamber induction. Serial blood samples (300 μL) were collected at 0, 5, 15, and 30 min, and at 1, 2, 4, 8, and 24 h after dosing. Blood samples were centrifuged at 5000 g for 10 min, and plasma was collected and stored at − 20 °C until analysis. Determination of aspartate transaminase (AST), alanine transaminase (ALT), and creatinine levels were performed at pre-dosing, and at 0 h and 24 h after dosing. Creatinine level was determined by enzymatic Roche Cobas 6000 analyzer. In this enzymatic method creatinine is converted to creatine under the activity of creatininase. Creatine is then acted upon by creatinase to form sarcosine and urea. Sarcosine oxidase converts sarcosine to glycine and hydrogen peroxide, and the hydrogen peroxide reacts with chromophore in the presence of peroxidase to produce a color product that is measured at 546 nm (secondary wavelength = 700 nm). This is an endpoint reaction that agrees well with recognized HPLC methods, and it has the advantage over Jaffe picric acid-based methods that are susceptible to interferences from non-creatinine chromogens. For tissue collection, the rats was euthanized with isoflurane after oral dosing the test compound at 100 mg/kg for 7 days. After the dead was confirmed, spleen and blood were immediately collected, washed with normal saline solution, and send to immunology laboratory for further experiments. The control group received oral gavage of 0.5% CMC as vehicle control. All animal procedures were complied with the ethical principles and guidelines for the use of animals (National Research Council of Thailand, 2015).
All pharmacokinetic parameters were computed by non-compartmental analysis using PK Solution 2.0 software (Summit Research Service, USA). […] The absolute oral bioavailability was calculated as (AUCp.o. ÷ dose p.o.) ÷ (AUCi.v. ÷ dose i.v.). Pharmacokinetic data are presented as mean ± standard deviation. Blood chemical parameters were analyzed by Mann–Whitney U-test to compare the significance of differences between pre-dosing and 24 h post-dosing, with a p-value of less than 0.05. All statistical analyses were calculated using SPSS version 16 (SPSS, Inc., USA). […] The data were analyzed with an unpaired Student’s t-test. A p-value of < 0.05 was considered statistically significant.

## C[C@H]1[C@H](C)CC[C@]2(C(=O)O[C@@H]3O[C@H](CO[C@@H]4O[C@H](CO)[C@@H](O[C@@H]5O[C@@H](C)[C@H](O)[C@@H](O)[C@H]5O)[C@H](O)[C@H]4O)[C@@H](O)[C@H](O)[C@H]3O)CC[C@]3(C)C(=CC[C@@H]4[C@@]5(C)C[C@@H](O)[C@H](O)[C@@](C)(CO)[C@@H]5[C@H](O)C[C@]43C)[C@H]12 [Madecassoside, madecassoside]
[1]
  Substrate for multidrug-resistant protein 2: substrate
[2]
  Substrate for P-glycoprotein: substrate
[3]
  ALT, Post-dose (24 h): 24.00 ± 4.85 U/L
  ALT, Pre-dose (0 h): 23.80 ± 2.59 U/L
  AST, Post-dose (24 h): 63.20 ± 16.81 U/L
  AST, Pre-dose (0 h): 46.20 ± 4.87 U/L
  Creatinine, Post-dose (24 h): 0.67 ± 0.05 mg/dL
  Creatinine, Pre-dose (0 h): 0.64 ± 0.04 mg/dL
  Physical appearance, Post-dose (24 h): Normal
  Physical appearance, Pre-dose (0 h): Normal
